# Data reported in ChEMBL document CHEMBL1909046, “DrugMatrix in vitro pharmacology data”.
# Target: T1, Amine oxidase [flavin-containing] A (Homo sapiens, UniProt P21397)
# T1 sequence (P21397 whole entry): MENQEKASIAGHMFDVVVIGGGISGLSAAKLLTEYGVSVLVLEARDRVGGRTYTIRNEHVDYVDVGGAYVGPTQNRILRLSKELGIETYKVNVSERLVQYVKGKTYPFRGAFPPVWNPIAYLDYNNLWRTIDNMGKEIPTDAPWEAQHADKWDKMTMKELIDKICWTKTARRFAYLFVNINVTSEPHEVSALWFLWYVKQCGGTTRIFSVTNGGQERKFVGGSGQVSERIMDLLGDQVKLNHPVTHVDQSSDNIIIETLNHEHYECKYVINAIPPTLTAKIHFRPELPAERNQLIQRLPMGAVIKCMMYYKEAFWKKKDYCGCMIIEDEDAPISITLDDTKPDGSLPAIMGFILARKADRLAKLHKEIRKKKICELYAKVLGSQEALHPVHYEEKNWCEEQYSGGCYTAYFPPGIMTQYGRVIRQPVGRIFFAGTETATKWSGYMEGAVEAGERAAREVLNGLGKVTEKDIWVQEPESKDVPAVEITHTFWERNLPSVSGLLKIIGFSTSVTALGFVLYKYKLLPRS
# Experiment: DRUGMATRIX: Monoamine Oxidase MAO-A enzyme inhibition (substrate: Kynuramine)
# Set-up: species or system BTI-TN-5B1-4
# Details: bti-tn-5b1-4; Not Active = under 50% inhibition at 10 µM
row,SMILES,IC50
1,CC[C@H](C)C(=O)O[C@H]1CCC=C2C=C[C@H](C)[C@H](CC[C@@H]3C[C@@H](O)CC(=O)O3)[C@H]21 [MEVASTATIN],Not Active
2,C[C@]12CCC(=O)C[C@@H]1CC[C@@H]1[C@@H]2CC[C@]2(C)[C@@H](O)CC[C@@H]12 [STANOLONE],Not Active
3,CC(N)C12CC3CC(CC(C3)C1)C2 (stereo not given) [RIMANTADINE],Not Active
4,Cc1cccc(C)c1NC(=O)C(C)N (stereo not given) [TOCAINIDE],Not Active
5,CCN(CC)N=O [N-NITROSODIETHYLAMINE],Not Active

# Tested on: not listed separately
# Experiment: DRUGMATRIX: Calcium Channel Type L, Dihydropyridine radioligand binding (ligand: [3H] Nitrendipine)
# Assay type: cell membranes, Rattus norvegicus, Wistar, Cerebral cortex, Membrane
# Details: Not Active = under 50% inhibition at 10 µM
SMILES,IC50,Ki
CC[C@H](C)C(=O)O[C@H]1CCC=C2C=C[C@H](C)[C@H](CC[C@@H]3C[C@@H](O)CC(=O)O3)[C@H]21 [MEVASTATIN],Not Active,Not Active
C[C@]12CCC(=O)C[C@@H]1CC[C@@H]1[C@@H]2CC[C@]2(C)[C@@H](O)CC[C@@H]12 [STANOLONE],Not Active,Not Active
CC(N)C12CC3CC(CC(C3)C1)C2 (stereo not given) [RIMANTADINE],Not Active,Not Active
Cc1cccc(C)c1NC(=O)C(C)N (stereo not given) [TOCAINIDE],Not Active,Not Active
CCN(CC)N=O [N-NITROSODIETHYLAMINE],Not Active,Not Active

# Target: T2, Cathepsin G (Homo sapiens, UniProt P08311);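 also: inhibition of Cathepsin G enzyme activity, tested on an AMC-conjugated peptide substrate; in other assays of this panel Not Active means under 50% inhibition at 10 µM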
# T2 sequence (P08311 whole entry): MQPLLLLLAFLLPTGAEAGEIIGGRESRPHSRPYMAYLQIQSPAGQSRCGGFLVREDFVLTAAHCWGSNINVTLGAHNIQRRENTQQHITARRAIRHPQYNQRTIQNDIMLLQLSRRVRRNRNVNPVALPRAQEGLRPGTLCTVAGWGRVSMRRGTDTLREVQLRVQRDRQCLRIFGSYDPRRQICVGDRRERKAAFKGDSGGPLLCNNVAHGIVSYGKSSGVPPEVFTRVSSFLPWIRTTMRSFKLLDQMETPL
# Experiment: biochemical
# Assay type: tissue-based, Neutrophil
# Details: neutrophil
row,SMILES,IC50
1,CC[C@H](C)C(=O)O[C@H]1CCC=C2C=C[C@H](C)[C@H](CC[C@@H]3C[C@@H](O)CC(=O)O3)[C@H]21 [MEVASTATIN],Not Active
2,C[C@]12CCC(=O)C[C@@H]1CC[C@@H]1[C@@H]2CC[C@]2(C)[C@@H](O)CC[C@@H]12 [STANOLONE],Not Active
3,CC(N)C12CC3CC(CC(C3)C1)C2 (stereo not given) [RIMANTADINE],Not Active
4,Cc1cccc(C)c1NC(=O)C(C)N (stereo not given) [TOCAINIDE],Not Active
5,CCN(CC)N=O [N-NITROSODIETHYLAMINE],Not Active

# Target: T3, Angiotensin-converting enzyme (Oryctolagus cuniculus, UniProt P12822);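 also: enzymatic inhibition of angiotensin-converting enzyme measured with FAPGG as the substrate; in other assays of this panel Not Active means under 50% inhibition at 10 µM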
# T3 sequence (P12822 whole entry): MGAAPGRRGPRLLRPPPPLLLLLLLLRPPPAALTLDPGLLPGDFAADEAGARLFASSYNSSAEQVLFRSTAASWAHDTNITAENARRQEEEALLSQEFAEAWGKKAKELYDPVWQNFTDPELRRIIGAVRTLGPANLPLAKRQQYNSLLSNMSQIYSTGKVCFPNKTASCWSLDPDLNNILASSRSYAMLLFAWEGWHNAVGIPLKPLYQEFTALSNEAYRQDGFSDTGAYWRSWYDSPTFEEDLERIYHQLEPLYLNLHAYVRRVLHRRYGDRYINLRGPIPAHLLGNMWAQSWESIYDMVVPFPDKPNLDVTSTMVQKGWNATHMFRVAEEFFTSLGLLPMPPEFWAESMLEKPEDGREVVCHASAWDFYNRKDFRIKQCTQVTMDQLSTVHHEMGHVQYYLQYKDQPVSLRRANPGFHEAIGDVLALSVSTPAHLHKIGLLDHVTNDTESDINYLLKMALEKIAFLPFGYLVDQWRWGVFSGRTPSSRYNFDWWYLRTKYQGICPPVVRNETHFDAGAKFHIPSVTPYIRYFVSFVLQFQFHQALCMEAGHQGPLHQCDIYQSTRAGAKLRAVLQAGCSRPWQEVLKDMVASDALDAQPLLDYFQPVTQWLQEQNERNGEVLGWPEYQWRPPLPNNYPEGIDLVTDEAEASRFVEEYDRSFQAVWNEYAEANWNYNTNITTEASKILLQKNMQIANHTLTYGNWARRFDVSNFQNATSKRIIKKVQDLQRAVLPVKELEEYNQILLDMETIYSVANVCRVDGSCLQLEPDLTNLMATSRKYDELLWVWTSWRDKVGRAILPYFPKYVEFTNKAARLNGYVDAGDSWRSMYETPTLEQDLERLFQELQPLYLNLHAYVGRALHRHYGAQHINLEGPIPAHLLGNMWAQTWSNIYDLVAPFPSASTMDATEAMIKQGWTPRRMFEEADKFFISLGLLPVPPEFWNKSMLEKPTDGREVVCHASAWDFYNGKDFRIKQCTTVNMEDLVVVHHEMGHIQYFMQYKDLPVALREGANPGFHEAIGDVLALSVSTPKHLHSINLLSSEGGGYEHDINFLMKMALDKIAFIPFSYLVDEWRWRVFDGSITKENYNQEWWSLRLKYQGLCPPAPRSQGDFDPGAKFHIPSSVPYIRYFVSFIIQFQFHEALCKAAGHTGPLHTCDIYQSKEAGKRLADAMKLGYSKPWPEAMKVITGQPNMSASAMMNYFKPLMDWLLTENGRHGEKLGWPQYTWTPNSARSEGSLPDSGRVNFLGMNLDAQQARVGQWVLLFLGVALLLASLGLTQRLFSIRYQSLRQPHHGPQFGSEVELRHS
# Experiment: biochemical
# Assay type: tissue-based, Lung
# Details: not given
row,SMILES,IC50
1,CC[C@H](C)C(=O)O[C@H]1CCC=C2C=C[C@H](C)[C@H](CC[C@@H]3C[C@@H](O)CC(=O)O3)[C@H]21 [MEVASTATIN],Not Active
2,C[C@]12CCC(=O)C[C@@H]1CC[C@@H]1[C@@H]2CC[C@]2(C)[C@@H](O)CC[C@@H]12 [STANOLONE],Not Active
3,CC(N)C12CC3CC(CC(C3)C1)C2 (stereo not given) [RIMANTADINE],Not Active
4,Cc1cccc(C)c1NC(=O)C(C)N (stereo not given) [TOCAINIDE],Not Active
5,CCN(CC)N=O [N-NITROSODIETHYLAMINE],Not Active

# Target: T4, Calcitonin receptor (Homo sapiens, UniProt P30988); also: in other assays of this panel Not Active means under 50% inhibition at 10 µM
# T4 sequence (P30988 whole entry): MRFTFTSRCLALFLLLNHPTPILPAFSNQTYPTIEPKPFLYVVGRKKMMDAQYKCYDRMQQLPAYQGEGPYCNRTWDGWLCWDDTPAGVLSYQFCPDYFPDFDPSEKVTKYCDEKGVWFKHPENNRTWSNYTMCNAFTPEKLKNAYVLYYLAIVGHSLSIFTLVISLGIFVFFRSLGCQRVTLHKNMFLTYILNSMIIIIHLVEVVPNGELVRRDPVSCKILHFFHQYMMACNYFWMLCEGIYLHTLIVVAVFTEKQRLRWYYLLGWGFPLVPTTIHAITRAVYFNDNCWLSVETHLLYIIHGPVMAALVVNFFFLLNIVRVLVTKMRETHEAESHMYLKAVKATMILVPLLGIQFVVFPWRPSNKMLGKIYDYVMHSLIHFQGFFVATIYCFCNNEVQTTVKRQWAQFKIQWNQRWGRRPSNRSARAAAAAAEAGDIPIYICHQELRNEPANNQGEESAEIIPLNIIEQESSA
# Experiment: not given
# Assay type: cell membranes, Membrane
# Details: t47d
row,SMILES,IC50
1,CC[C@H](C)C(=O)O[C@H]1CCC=C2C=C[C@H](C)[C@H](CC[C@@H]3C[C@@H](O)CC(=O)O3)[C@H]21 [MEVASTATIN],Not Active
2,C[C@]12CCC(=O)C[C@@H]1CC[C@@H]1[C@@H]2CC[C@]2(C)[C@@H](O)CC[C@@H]12 [STANOLONE],Not Active
3,CC(N)C12CC3CC(CC(C3)C1)C2 (stereo not given) [RIMANTADINE],Not Active
4,Cc1cccc(C)c1NC(=O)C(C)N (stereo not given) [TOCAINIDE],Not Active
5,CCN(CC)N=O [N-NITROSODIETHYLAMINE],Not Active

# Target: Beta-1 adrenergic receptor (Homo sapiens, UniProt P08588)
# Experiment: DRUGMATRIX: Adrenergic beta1 radioligand binding (ligand: [125I] Cyanopindolol)
# Assay type: cell membranes, CHO-K1, Membrane
# Details: cho-k1; Not Active = under 50% inhibition at 10 µM
# Sequence of Beta-1 adrenergic receptor (P08588 whole entry): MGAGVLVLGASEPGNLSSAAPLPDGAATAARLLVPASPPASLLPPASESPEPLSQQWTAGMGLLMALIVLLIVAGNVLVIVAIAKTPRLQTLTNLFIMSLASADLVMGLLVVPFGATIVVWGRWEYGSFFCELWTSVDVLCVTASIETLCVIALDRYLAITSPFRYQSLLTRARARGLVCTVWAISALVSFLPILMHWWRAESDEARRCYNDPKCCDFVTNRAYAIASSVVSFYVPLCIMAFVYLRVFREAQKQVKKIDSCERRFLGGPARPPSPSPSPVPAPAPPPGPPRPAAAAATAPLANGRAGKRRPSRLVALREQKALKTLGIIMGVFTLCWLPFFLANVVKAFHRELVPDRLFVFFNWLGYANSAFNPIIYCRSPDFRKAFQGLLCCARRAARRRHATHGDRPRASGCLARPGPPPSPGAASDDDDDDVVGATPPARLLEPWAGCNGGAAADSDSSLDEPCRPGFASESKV
row,SMILES,IC50
1,CC[C@H](C)C(=O)O[C@H]1CCC=C2C=C[C@H](C)[C@H](CC[C@@H]3C[C@@H](O)CC(=O)O3)[C@H]21 [MEVASTATIN],Not Active
2,C[C@]12CCC(=O)C[C@@H]1CC[C@@H]1[C@@H]2CC[C@]2(C)[C@@H](O)CC[C@@H]12 [STANOLONE],Not Active
3,CC(N)C12CC3CC(CC(C3)C1)C2 (stereo not given) [RIMANTADINE],Not Active
4,Cc1cccc(C)c1NC(=O)C(C)N (stereo not given) [TOCAINIDE],Not Active
5,CCN(CC)N=O [N-NITROSODIETHYLAMINE],Not Active

# Target: Acetylcholinesterase (Homo sapiens, UniProt P22303)
# Experiment: DRUGMATRIX: Acetylcholinesterase enzyme inhibition (substrate: acetylthiocholine)
# Assay type: cell-based, HEK293
# Details: hek293; Not Active = under 50% inhibition at 10 µM
# Sequence of Acetylcholinesterase (P22303 whole entry): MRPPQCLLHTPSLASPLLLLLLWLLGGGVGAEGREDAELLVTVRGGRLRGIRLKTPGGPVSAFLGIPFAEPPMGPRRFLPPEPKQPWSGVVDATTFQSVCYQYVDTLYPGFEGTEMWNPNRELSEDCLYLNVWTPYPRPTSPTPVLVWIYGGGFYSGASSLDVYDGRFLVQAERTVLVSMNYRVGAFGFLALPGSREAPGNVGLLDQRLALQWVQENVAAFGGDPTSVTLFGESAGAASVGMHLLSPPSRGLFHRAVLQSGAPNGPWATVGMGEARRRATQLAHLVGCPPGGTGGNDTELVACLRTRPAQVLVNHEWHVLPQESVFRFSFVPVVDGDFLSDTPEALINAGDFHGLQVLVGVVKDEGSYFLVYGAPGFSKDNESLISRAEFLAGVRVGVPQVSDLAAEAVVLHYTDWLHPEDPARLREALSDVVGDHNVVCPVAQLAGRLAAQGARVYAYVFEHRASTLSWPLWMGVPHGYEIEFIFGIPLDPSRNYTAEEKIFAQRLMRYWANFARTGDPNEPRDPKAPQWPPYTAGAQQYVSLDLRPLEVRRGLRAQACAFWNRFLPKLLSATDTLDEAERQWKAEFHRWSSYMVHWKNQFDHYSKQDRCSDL
row,SMILES,IC50
1,CC[C@H](C)C(=O)O[C@H]1CCC=C2C=C[C@H](C)[C@H](CC[C@@H]3C[C@@H](O)CC(=O)O3)[C@H]21 [MEVASTATIN],Not Active
2,C[C@]12CCC(=O)C[C@@H]1CC[C@@H]1[C@@H]2CC[C@]2(C)[C@@H](O)CC[C@@H]12 [STANOLONE],Not Active
3,CC(N)C12CC3CC(CC(C3)C1)C2 (stereo not given) [RIMANTADINE],Not Active
4,Cc1cccc(C)c1NC(=O)C(C)N (stereo not given) [TOCAINIDE],Not Active
5,CCN(CC)N=O [N-NITROSODIETHYLAMINE],Not Active
